The values that follow come from article PMC3203539 (2011).

The target in assay [1] is T1, Sth1 (ATPase subunit of RSCt, trimeric minimal RSC) (Saccharomyces cerevisiae, UniProt P32597).
T1 sequence (P32597 301-1097): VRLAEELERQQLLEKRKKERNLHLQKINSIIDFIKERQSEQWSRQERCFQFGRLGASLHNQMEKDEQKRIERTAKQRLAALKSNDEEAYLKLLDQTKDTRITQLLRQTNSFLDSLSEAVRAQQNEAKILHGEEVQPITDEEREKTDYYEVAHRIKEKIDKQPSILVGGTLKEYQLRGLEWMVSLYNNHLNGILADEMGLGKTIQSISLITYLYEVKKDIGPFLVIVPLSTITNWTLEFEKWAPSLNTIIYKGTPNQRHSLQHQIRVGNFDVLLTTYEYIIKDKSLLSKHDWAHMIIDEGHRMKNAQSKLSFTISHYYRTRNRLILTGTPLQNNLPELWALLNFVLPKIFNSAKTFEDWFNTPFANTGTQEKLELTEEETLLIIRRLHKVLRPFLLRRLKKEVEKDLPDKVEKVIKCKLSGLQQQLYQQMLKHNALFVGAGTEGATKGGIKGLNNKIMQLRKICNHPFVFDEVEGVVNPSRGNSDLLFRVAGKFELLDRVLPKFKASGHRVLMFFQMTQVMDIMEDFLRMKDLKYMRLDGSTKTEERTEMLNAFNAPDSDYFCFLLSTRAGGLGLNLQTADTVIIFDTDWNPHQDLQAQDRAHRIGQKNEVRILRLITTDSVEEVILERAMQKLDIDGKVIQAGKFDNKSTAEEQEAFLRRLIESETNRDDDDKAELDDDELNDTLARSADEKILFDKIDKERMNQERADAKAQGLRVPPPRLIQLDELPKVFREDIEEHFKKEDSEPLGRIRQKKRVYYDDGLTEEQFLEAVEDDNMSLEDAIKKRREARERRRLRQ
T1 sequence (Q12406 1-477 partner): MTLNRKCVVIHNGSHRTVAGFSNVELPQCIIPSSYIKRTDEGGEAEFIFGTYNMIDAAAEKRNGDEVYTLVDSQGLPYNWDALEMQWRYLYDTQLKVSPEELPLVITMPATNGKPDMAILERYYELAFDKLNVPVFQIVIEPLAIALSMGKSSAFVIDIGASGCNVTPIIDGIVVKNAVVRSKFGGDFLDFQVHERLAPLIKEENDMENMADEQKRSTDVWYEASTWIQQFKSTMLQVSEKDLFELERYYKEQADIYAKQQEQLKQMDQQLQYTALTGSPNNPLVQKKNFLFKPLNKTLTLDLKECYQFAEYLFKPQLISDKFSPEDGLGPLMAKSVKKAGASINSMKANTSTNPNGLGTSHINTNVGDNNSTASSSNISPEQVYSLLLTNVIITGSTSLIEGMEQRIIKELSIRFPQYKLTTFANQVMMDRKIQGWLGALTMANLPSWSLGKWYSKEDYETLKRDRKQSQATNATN
T1 sequence (Q05123 1-467 partner): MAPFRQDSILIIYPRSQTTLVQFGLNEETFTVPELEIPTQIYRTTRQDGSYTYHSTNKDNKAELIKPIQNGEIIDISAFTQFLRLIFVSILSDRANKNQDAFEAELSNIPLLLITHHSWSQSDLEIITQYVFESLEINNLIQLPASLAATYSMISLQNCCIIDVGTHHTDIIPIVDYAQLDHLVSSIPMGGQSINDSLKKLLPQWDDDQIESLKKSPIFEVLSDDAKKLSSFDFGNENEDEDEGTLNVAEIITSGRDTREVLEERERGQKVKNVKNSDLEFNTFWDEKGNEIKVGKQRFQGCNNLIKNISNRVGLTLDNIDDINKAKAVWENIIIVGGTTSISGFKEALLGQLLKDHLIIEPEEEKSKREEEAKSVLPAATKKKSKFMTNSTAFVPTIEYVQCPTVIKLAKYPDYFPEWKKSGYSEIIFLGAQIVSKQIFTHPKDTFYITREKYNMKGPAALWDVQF
Format: binding.

The target of assay [2] is T1, Sth1 (ATPase subunit of RSCt, trimeric minimal RSC). Format: binding. This is another data set of the same source.

Read-outs that look alike come from different tables or passages of the source.

In general, Kd refers to the free concentration of one partner at which half of the binding sites on the other are occupied at equilibrium, for simple one-to-one binding. A high value points to lower affinity. Regarding `Nc1ncnc2c1ncn2[C@@H]1O[C@H](COP(=O)(O)OP(=O)(O)O)[C@@H](O)[C@H]1O` [ADP], the Kd in assay [1] was 14 ± 4 µM. For the compound `Nc1ncnc2c1ncn2[C@@H]1O[C@H](COP(=O)(O)OP(=O)(O)NP(=O)(O)O)[C@@H](O)[C@H]1O` [AMP-PNP], the Kd in assay [2] stood at 72 ± 6 µM.
